Measured values taken from PMC8659078, “A Validated HPLC-PDA-HRMS Method to Investigate the Biological Stability and Metabolism of Antiparasitic Triterpenic Esters” (Molecules, 2021).
Counter-ions that a name gives are not always drawn.

Legend:
in vitro = settings: male, mouse, pooled liver microsomes, pH 7.4
[1] = set-up: method as in earlier work; settings: ref 3 (supplement); cited from earlier work
[2] = cited from earlier work

SMILES	bound to plasma proteins [2]	other results
O=C(O)Cc1ccccc1Nc1c(Cl)cccc1Cl [Diclofenac, diclofenac sodium salt]	–	half-life (in vitro): 2.55 h
CCN(CC)CCOC(=O)c1ccc(N)cc1 [Procaine, Procaine hydrochloride]	–	time of hydrolysis by human plasma esterases into PABA [1]: ~ 10 min
C[C@H]1[C@H](C)CC[C@]2(C(=O)O)CC[C@]3(C)C(=CC[C@@H]4[C@@]5(C)C[C@@H](O)[C@H](O)[C@@](C)(CO)[C@@H]5CC[C@]43C)[C@H]12 [asiatic acid]	more than 95%	–
C=C(C)[C@@H]1CC[C@]2(C(=O)O)CC[C@]3(C)[C@H](CC[C@@H]4[C@@]5(C)CC[C@H](O)C(C)(C)[C@@H]5CC[C@]43C)[C@@H]12 [betulinic acid]	more than 95%	–
CC1(C)CC[C@]2(C(=O)O)CC[C@]3(C)C(=CC[C@@H]4[C@@]5(C)CC[C@H](O)C(C)(C)[C@@H]5CC[C@]43C)[C@@H]2C1 [oleanolic acid]	more than 95%	–
C[C@H]1[C@H](C)CC[C@]2(C(=O)O)CC[C@]3(C)C(=CC[C@@H]4[C@@]5(C)CC[C@H](O)C(C)(C)[C@@H]5CC[C@]43C)[C@H]12 [ursolic acid]	more than 95%	–
